Structures can show the parent of a compound that is named as a salt. Where two headings read alike, the source gives them in different places.
Assays:
[1] = target: T1, CSF1R (Homo sapiens, UniProt P07333); test: Binding constant (Kd) measurement, phage-displayed kinase competition binding assay, CSF1R
T1 construct: made in house
Protocol: (§1) Binding Constant (Kd) Measurements for Small-Molecule-Kinase Interactions
(§2) By testing across a large class of protein kinases, specificity of the kinase inhibitors provided herein is also determined. The components of the assays include various human kinases expressed as fusions to T7 bacteriophage particles and immobilized ligands that bind to the ATP site of the kinases. […] If the test compound binds the kinase, it competes with the immobilized ligand and prevents binding to the solid support. […] The results are read out by quantitating the amount of fusion protein bound to the solid support, which is accomplished by either traditional phage plaque assays or by quantitative PCR (qPCR) using the phage genome as a template.

[2] = target: T2, FLT3 (Homo sapiens, UniProt P36888); test: Binding constant (Kd) measurement, phage-displayed kinase competition binding assay, FLT3
T2 construct: made in house
T2 sequence (P36888 27-993): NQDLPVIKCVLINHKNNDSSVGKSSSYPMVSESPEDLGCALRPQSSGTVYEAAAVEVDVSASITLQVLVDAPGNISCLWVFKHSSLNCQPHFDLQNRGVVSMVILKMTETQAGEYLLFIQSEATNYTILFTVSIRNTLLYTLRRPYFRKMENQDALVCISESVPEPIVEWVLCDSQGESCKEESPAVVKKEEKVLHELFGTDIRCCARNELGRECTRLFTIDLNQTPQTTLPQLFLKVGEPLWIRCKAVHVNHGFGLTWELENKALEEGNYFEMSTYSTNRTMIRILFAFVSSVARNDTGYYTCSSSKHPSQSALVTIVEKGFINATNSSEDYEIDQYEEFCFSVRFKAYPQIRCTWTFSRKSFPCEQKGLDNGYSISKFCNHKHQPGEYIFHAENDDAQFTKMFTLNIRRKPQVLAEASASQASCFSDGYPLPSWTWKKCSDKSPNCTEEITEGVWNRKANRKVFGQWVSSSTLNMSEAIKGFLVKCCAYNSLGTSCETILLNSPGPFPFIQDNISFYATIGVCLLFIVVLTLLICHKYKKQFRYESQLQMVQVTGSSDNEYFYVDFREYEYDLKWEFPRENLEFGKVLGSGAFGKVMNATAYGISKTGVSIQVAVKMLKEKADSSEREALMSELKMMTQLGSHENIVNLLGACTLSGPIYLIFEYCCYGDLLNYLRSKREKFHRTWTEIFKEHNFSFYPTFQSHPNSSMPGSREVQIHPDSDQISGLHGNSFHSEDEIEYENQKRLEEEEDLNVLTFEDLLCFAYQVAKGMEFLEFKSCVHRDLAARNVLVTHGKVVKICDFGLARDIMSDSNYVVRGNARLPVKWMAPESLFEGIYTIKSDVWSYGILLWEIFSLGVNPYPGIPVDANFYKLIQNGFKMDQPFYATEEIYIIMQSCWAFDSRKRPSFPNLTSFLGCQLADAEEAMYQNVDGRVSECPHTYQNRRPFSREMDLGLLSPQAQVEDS
Protocol: as §1, §2

[3] = system: MV4-11 cells; test: Cellular proliferation assay (MTS), MV4-11; type: cell-based; conditions: Homo sapiens
From the text: Cellular Proliferation Assay
Cancer cell viability and proliferation can be evaluated using a tetrazolium salt reduction cell-based assay. In viable cells, this colorimetric assay can measure mitochondrial reduction of a tetrazolium component (MTS) into an […] formazan product.
This cell line was used to determine the ability of the compounds provided herein to inhibit Flt3 in intact cells. The RS4-11 cell line, which expresses the wild-type (WT) receptor, is also used as a control to verify the test compound's ability to inhibit the FLT3 receptor containing the ITD mutation.
MV4-11 cells were plated at 10,000 cells per well in DMEM medium with 0.5% serum. RS4-11 cells were plated at 20,000 cells per well in RPMI with 0.5% serum. […] An aliquot from each well of the compound plate was transferred to the plated cells and then incubated @ 37° C. in 5% CO2 (for 3 days for the MV4-11 cells, 2 days for the RS4-11 cells).
MTS tetrazolium compound (Owen's reagent) was thawed in a H2O bath. 20 μl of MTS tetrazolium was added to each well of optical plate and the cells were incubated @ 37° C. in 5% CO2 for 2 hours.

[4] = target: T3, KIT (Homo sapiens, UniProt P10721); test: Binding constant (Kd) measurement, phage-displayed kinase competition binding assay, KIT
T3 construct: made in house
Protocol: as §1, §2

[5] = MV4-11 cells, 72 hour incubation, MTS, read-out: Cellular Assay MV-proliferation IC50
[6] = read-out: Binding Assay FLT3 Kd

T3 sequence (P10721 26-976): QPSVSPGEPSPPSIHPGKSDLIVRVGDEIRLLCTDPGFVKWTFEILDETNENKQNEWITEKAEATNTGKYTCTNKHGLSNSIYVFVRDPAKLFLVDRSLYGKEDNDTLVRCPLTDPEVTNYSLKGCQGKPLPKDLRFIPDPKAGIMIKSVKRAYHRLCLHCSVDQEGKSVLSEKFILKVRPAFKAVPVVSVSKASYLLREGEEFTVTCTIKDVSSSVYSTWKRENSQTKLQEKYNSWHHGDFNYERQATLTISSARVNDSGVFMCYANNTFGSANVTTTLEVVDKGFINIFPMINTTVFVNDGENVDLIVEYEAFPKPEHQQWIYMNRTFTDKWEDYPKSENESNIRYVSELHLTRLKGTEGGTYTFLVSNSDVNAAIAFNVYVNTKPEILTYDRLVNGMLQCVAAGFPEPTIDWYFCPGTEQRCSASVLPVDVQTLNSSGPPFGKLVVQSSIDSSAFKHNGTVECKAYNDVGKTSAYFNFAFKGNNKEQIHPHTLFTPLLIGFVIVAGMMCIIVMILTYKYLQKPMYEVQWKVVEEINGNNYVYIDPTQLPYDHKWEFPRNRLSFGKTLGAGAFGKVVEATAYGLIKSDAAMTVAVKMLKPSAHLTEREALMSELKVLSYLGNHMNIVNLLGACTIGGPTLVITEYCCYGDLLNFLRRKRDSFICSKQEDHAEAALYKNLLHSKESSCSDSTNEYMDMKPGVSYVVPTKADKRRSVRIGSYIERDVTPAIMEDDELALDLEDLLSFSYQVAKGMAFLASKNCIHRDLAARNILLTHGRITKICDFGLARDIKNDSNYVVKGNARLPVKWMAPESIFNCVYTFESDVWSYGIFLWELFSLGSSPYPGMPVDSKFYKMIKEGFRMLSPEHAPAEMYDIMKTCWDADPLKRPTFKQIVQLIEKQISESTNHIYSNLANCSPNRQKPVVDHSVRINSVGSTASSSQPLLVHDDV
T1 sequence (P07333 20-972): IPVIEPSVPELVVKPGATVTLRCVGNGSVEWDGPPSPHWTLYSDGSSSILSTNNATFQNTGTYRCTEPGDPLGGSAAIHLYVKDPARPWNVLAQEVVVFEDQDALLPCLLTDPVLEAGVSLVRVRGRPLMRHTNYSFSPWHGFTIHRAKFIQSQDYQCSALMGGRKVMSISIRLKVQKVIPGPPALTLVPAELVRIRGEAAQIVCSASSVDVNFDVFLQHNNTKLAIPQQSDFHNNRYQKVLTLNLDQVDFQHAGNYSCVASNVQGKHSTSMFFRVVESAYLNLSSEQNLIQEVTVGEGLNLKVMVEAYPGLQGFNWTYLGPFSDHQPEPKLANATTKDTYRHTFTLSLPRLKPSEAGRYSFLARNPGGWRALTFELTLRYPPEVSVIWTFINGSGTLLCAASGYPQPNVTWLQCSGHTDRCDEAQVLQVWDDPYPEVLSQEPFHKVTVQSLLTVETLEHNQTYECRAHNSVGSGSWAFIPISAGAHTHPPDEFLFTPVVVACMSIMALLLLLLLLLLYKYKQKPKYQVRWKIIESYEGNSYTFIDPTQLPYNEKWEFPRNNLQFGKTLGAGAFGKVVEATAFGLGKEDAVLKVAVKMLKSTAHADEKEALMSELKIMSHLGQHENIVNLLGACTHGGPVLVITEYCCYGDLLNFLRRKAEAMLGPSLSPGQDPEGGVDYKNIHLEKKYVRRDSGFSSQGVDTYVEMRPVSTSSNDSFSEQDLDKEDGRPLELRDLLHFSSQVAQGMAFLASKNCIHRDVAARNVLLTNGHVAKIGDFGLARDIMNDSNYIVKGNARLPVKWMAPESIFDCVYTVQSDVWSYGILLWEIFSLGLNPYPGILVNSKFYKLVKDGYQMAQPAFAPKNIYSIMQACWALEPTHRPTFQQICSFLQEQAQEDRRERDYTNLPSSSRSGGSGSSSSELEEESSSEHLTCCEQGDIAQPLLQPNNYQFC

| Kd [2, 6] | Structure (SMILES) | Kd [1] | Kd [2] | IC50 [3, 5] | Kd [4] | IC50 ([3]; MV4-11, 72 h, read-out: Cellular Assay MV-proliferation IC50 (nM)) |
| --- | --- | --- | --- | --- | --- | --- |
|  | CCN(CC)CCNC(=O)CCc1ccc2c(c1)sc1nc(-c3ccc(NC(=O)Nc4cc(C(C)(C)C)on4)cc3)cn12 [Compound C12, 3-(2-{4-[3-(5-tert-butyl-isoxazol-3-yl)-ureido]-phenyl}-benzo[d]imidazo[2,1-b]thiazol-7-yl)-N-(2-diethylamino-ethyl)-propionamide hydrochloride] | 10 to 100 nM | < 10 nM | < 10 nM | < 10 nM |  |
|  | CC(C)(C)c1cc(NC(=O)Nc2ccc(-c3cn4c(n3)sc3cc(CC(=O)NCCN5CCOCC5)ccc34)cc2)no1 [Compound C13, 2-(2-{4-[3-(5-tert-butyl-isoxazol-3-yl)-ureido]-phenyl}-benzo[d]imidazo[2,1-b]thiazol-7-yl)-N-(2-morpholin-4-yl-ethyl)-acetamide hydrochloride] | 10 to 100 nM | < 10 nM | < 10 nM | < 10 nM |  |
|  | CC(C)(C)c1cc(NC(=O)Nc2ccc(-c3cn4c(n3)sc3cc(CC(=O)NCCN5CCCCC5)ccc34)cc2)no1 [Compound C14, 2-(2-{4-[3-(5-tert-butyl-isoxazol-3-yl)-ureido]-phenyl}-benzo[d]imidazo[2,1-b]thiazol-7-yl)-N-(2-piperidin-1-yl-ethyl)-acetamide hydrochloride] | 10 to 100 nM | < 10 nM | < 10 nM | < 10 nM |  |
|  | CC(C)(C)c1cc(NC(=O)Nc2ccc(-c3cn4c(n3)sc3cc(CC(=O)N5CCOCC5)ccc34)cc2)no1 [Compound C18, 1-(5-tert-butyl-isoxazol-3-yl)-3-{4-[7-(2-morpholin-4-yl-2-oxo-ethyl)-imidazo[2,1-b][1,3]benzothiazol-2yl]-phenyl}-urea] | 10 to 100 nM | < 10 nM | < 10 nM | < 10 nM |  |
|  | CC(C)(C)c1cc(NC(=O)Nc2ccc(-c3cn4c(n3)sc3cc(C(=O)NCCN5CCCC5)ccc34)cc2)no1 [Compound C21, 2-{4-[3-(5-tert-butyl-isoxazol-3-yl)-ureido]-phenyl}-imidazo[2,1-b][1,3]benzothiazole-7-carboxylic Acid (2-Pyrrolidin-1-yl-ethyl)-amide hydrochloride] | 10 to 100 nM | < 10 nM | < 10 nM | < 10 nM |  |
|  | CCN(CC)CCNC(=O)c1ccc2c(c1)sc1nc(-c3ccc(NC(=O)Nc4cc(C(C)(C)C)on4)cc3)cn12 [Compound C22, 2-{4-[3-(5-tert-butyl-isoxazol-3-yl)-ureido]-phenyl}-imidazo[2,1-b][1,3]benzothiazole-7-carboxylic acid (2-diethylamino-ethyl)-amide hydrochloride] | 10 to 100 nM | < 10 nM | < 10 nM | < 10 nM |  |
|  | CC(C)(C)c1cc(NC(=O)Nc2ccc(-c3cn4c(n3)sc3cc(C(=O)N5CCNCC5)ccc34)cc2)no1 [Compound C24, 1-(5-tert-butyl-isoxazol-3-yl)-3-{4-[7-(piperazine-1-carbonyl)-imidazo[2,1-b][1,3]benzothiazol-2-yl]-phenyl}-urea hydrochloride] | 10 to 100 nM | < 10 nM | < 10 nM | < 10 nM |  |
|  | CN1CCN(C(=O)c2ccc3c(c2)sc2nc(-c4ccc(NC(=O)Nc5cc(C(C)(C)C)on5)cc4)cn23)CC1 [Compound C25, 1-(5-tert-butyl-isoxazol-3-yl)-3-{4-[7-(4-methyl-piperazine-1-carbonyl)-imidazo[2,1-b][1,3]benzothiazol-2-yl]-phenyl}-urea hydrochloride] | 10 to 100 nM | < 10 nM | < 10 nM | < 10 nM |  |
|  | CCOC(=O)c1ccc2c(c1)sc1nc(-c3ccc(NC(=O)Nc4cc(C(C)(C)C)on4)cc3)cn12 [Compound C26, 2-{4-[3-(5-tert-Butyl-isoxazol-3-yl)-ureido]-phenyl}-imidazo[2,1-b][1,3]benzothiazole-7-carboxylic acid ethyl ester] | 100 to 1000 nM | < 10 nM | < 10 nM | 10 to 100 nM |  |
| < 10 nM | CC(C)(C)c1cc(NC(=O)Nc2ccc(-c3cn4c(n3)sc3cc(C(=O)O)ccc34)cc2)no1 [Compound C27, Sodium 2-{4-[3-(5-tert-butyl-isoxazol-3-yl)-ureido]-phenyl}-benzo[d]imidazo[2,1-b]thiazole-7-carboxylate] | 10 to 100 nM |  | < 10 nM | < 10 nM |  |
| 10 to 100 nM | CN(C(=O)Nc1cc(C(C)(C)C)on1)c1ccc(-c2cn3c(n2)sc2cc(CCCN4CCOCC4)ccc23)cc1 [Compound D2, 3-(5-tert-Butyl-isoxazol-3-yl)-1-methyl-1 {4-[7-(3-morpholin-4-yl-propyl)-benzo[d]imidazo[2,1-b]thiazol-2-yl]-phenyl}-urea] | 10 to 100 nM |  | 10 to 100 nM | < 10 nM |  |
| < 10 nM | CC(C)(C)c1cc(NC(=O)Nc2ccc(-c3cn4c(n3)sc3cc(CCCN5CCOCC5)ccc34)cc2)no1 [Compound D3, 1-(5-tert-Butyl-isoxazol-3-yl)-3-{4-[7-(3-morpholin-4-yl-propyl)-benzo[d]imidazo[2,1-b]thiazol-2-yl]-phenyl}-urea] | 10 to 100 nM |  | < 10 nM | < 10 nM |  |
|  | CC(C)(C)c1cc(NC(=O)Nc2ccc(-c3cn4c(n3)sc3cc(CCCN5CCCCC5)ccc34)cc2)no1 [Compound D4, N-(5-tert-Butyl-isoxazol-3-yl)-N′-{4-[7-(3-piperidin-1-yl-propyl)imidazo[2,1-b][1,3]benzothiazol-2-yl]phenyl}urea hydrochloride] | 10 to 100 nM | < 10 nM | < 10 nM | 10 to 100 nM |  |
|  | CC(C)(C)c1cc(NC(=O)Nc2ccc(-c3cn4c(n3)sc3cc(CCN5CCOCC5)ccc34)cc2)no1 [Compound D5, 1-(5-tert-Butyl-isoxazol-3-yl)-3-{4-[7-(2-morpholin-4-yl-ethyl)-imidazo[2,1-b][1,3]benzothiazol-2-yl]-phenyl}-urea hydrochloride] | < 10 nM | < 10 nM | < 10 nM | < 10 nM |  |
|  | CC(C)(C)c1cc(NC(=O)Nc2ccc(-c3cn4c(n3)sc3cc(CCN5CCCCC5)ccc34)cc2)no1 [Compound D6, 1-(5-tert-Butyl-isoxazol-3-yl)-3-{4-[7-(2-piperidin-1-yl-ethyl)-imidazo[2,1-b][1,3]benzothiazol-2-yl]-phenyl}urea hydrochloride] | < 10 nM | < 10 nM | < 10 nM | < 10 nM |  |
|  | CCN1CCN(CCc2ccc3c(c2)sc2nc(-c4ccc(NC(=O)Nc5cc(C(C)(C)C)on5)cc4)cn23)CC1 [Compound D7, 1-(5-tert-Butyl-isoxazol-3-yl)-3-(4-{7-[2-(4-ethyl-piperazin-1-yl)-ethyl]-imidazo[2,1-b][1,3]benzothiazol-2-yl}-phenyl)-urea hydrochloride] | < 10 nM | < 10 nM | < 10 nM | < 10 nM |  |

| Structure (SMILES) | Kd [2, 6] | Kd [1] | Kd [2] | IC50 [3, 5] | Kd [4] | IC50 ([3]; MV4-11, 72 h, read-out: Cellular Assay MV-proliferation IC50 (nM)) |
| --- | --- | --- | --- | --- | --- | --- |
| CCN1CCN(C(=O)c2ccc3c(c2)sc2nc(-c4ccc(NC(=O)Nc5cc(C(C)(C)C)on5)cc4)cn23)CC1 [Compound C23, 1-(5-tert-butyl-isoxazol-3-yl)-3-{4-[7-(4-ethyl-piperazine-1-carbonyl)-imidazo[2,1-b][1,3]benzothiazol-2-yl]-phenyl}-urea hydrochloride] | < 10 nM | 10 to 100 nM |  |  | < 10 nM | < 10 nM |
